The nature of one data set: LogD. The conditions noted are these: pH 7.4; In vitro LogD.
Data set [1] can be described thus: Permeability Papp (AB) MDR1/MDCKII. The conditions noted are these: In vitro MDR1-MDCKII permeability; for papp_a_to_b_mean: A to B; for perc_recovery_a_to_b_mean: recovery A to B.
Data set [2] in a line: Hepatic microsomal stability, MLM. The format is in vitro ADME.
Data set [3] in a line: Hepatic microsomal stability, HLM. Type of data set: in vitro ADME, human. The conditions noted are these: In vitro human liver microsomal stability; for perc_remaining_no_cofactor: no cofactor.
Data set [4] is described as follows: In vitro kinetic solubility. The conditions noted are these: In vitro kinetic solubility, ph 7.4.
[5] abbreviates: In vitro mouse liver microsomal stability.
The mark [6] stands for this setting: In vitro mouse liver microsomal stability, no cofactor.
Where [7] appears, read: In vitro mouse liver microsomal stability; no cofactor.

From paper doi:10.1101/2024.08.19.608619, “Discovery of potent SARS-CoV-2 nsp3 macrodomain inhibitors uncovers lack of translation to cellular antiviral response” (bioRxiv, 2024) come the findings set out here.

≈ marks a conversion by molar mass, not a printed value. Where “and” joins values, the source holds several entries; their conditions need not be identical. Identical values can stand only once.

Regarding `CC(C(=O)O)C(NC(=O)c1ncnc2[nH]ccc12)c1ccc(Br)cc1` (mixture of isomers) [ASAP-0008445], the logd in “LogD” was 0.5. In data set [1] (mean), this compound yielded a papp_a_to_b_mean of 1.4 ×10⁻⁶ cm/s and a perc_recovery_a_to_b_mean of 93.4%. Also, in data set [2] (setting [5]), the clint worked out at 4.0 µL/min/mg, the perc_remaining was 94.0% and the t_half is 433.2 min. Moreover, the perc_remaining_no_cofactor in data set [2] (setting [6]) is given as 109.0%. Further, in data set [3], the clint stood at 5.0 µL/min/mg, the perc_remaining was 103.0%, the t_half came out at 338.5 min and the perc_remaining_no_cofactor is reported as 110.0%. This compound also registered a solubility_mean in data set [4] of 386 µM.

Compound `COc1ccc(C(NC(=O)c2ncnc3[nH]ccc23)C(C)c2nnn[nH]2)cc1` (mixture of isomers) [ASAP-0010744] yielded a logd in the data set “LogD” of 0.0. Further, in data set [1] (no inhibitor), the papp_a_to_b_mean came to 1.13 ×10⁻⁶ cm/s and the perc_recovery_a_to_b_mean is listed as 93.6%. Besides, in data set [2] (setting [5]), the clint amounted to 1.0 µL/min/mg, the perc_remaining is listed as 99.0% and the t_half stood at 2882.2 min. The perc_remaining_no_cofactor in data set [2] (setting [6]) stood at 92.0%. For the same compound, in data set [3], the clint is 2.0 µL/min/mg, the perc_remaining came out at 92.0%, the t_half worked out at 798.7 min and the perc_remaining_no_cofactor is recorded as 103.0%. For the same compound, in data set [4], the solubility_mean was not below 400 µM.

`COc1ccc2c(c1)CCN(c1ncnc3[nH]ccc13)[C@H]2C(C)C` (racemic) [ASAP-0000502] returned a logd in the data set “LogD” of 4.33. In addition, in data set [1] (mean), the papp_a_to_b_mean is 7.0 ×10⁻⁶ cm/s and the perc_recovery_a_to_b_mean worked out at 32.0%. In data set [2] (setting [5]), the clint is 321.0 µL/min/mg, the perc_remaining was 1.0% and the t_half came out at 5.2 min. Further, the perc_remaining_no_cofactor in data set [2] (setting [7]) is given as 83.0%. For the same compound, in data set [3], the clint was 60.0 µL/min/mg, the perc_remaining was determined as 38.0%, the t_half was 27.8 min and the perc_remaining_no_cofactor stood at 103.0%. The same compound had a solubility_mean in data set [4] of 14 µM (≈ 4.51 µg/mL).

Regarding `COc1ccc([C@H](CC(=O)O)NC(=O)c2ncnc3[nH]ccc23)cc1` (racemic) [ASAP-0000591], in the data set “LogD”, the logd was -0.38. In data set [1] (mean), this compound came in with a papp_a_to_b_mean of 1.7 ×10⁻⁶ cm/s and a perc_recovery_a_to_b_mean of 90.0%. For the same compound, in data set [2] (setting [5]), the clint came out at 2.0 µL/min/mg, the perc_remaining worked out at 94.0% and the t_half turned out to be 686.4 min. In addition, the perc_remaining_no_cofactor in data set [2] (setting [7]) was 96.0%. Moreover, in data set [3], the clint stood at 7.0 µL/min/mg, the perc_remaining stood at 87.0%, the t_half was 240.4 min and the perc_remaining_no_cofactor is listed as 88.0%. Also, the solubility_mean in data set [4] is not below 400 µM.

On to `O=C(Nc1cccc2c(C(=O)N[C@H]3c4ccccc4C[C@H]3C(=O)O)c[nH]c12)NC1CC1` (racemic) [ASAP-0000627], for which the logd in the data set “LogD” is on record as -0.05. In data set [1] (mean), this compound showed a papp_a_to_b_mean of 1.8 ×10⁻⁶ cm/s and a perc_recovery_a_to_b_mean of 81.0%. Besides, in data set [2] (setting [5]), the clint came to 4.0 µL/min/mg, the perc_remaining is listed as 95.0% and the t_half was 453.6 min. Further, the perc_remaining_no_cofactor in data set [2] (setting [7]) was 105.0%. In addition, in data set [3], the clint turned out to be 6.0 µL/min/mg, the perc_remaining was found to be 88.0%, the t_half stood at 279.8 min and the perc_remaining_no_cofactor was 86.0%. In addition, the solubility_mean in data set [4] was not below 400 µM.

In the case of `CC(C)[C@H](Nc1ncnc2[nH]cc(C(N)=O)c12)c1ccc2c(c1)OCCO2` (racemic) [ASAP-0008399], the logd in the data set “LogD” came out at 3.2. In data set [1] (mean), this compound registered a papp_a_to_b_mean of 11.1 ×10⁻⁶ cm/s and a perc_recovery_a_to_b_mean of 90.0%. In addition, in data set [2] (setting [5]), the clint stood at 142.0 µL/min/mg, the perc_remaining came out at 9.0% and the t_half is given as 11.7 min. Also, the perc_remaining_no_cofactor in data set [2] (setting [6]) is given as 98.0%. Further, in data set [3], the clint is 143.0 µL/min/mg, the perc_remaining was 9.0%, the t_half came to 11.7 min and the perc_remaining_no_cofactor is reported as 110.0%. For the same compound, the solubility_mean in data set [4] came out at 375 µM (≈ 138 µg/mL).

Take `CC(C)[C@H](Nc1ncnc2[nH]c(-c3cnn(C)c3C#N)cc12)c1ccc2c(c1)NC(=O)CO2` (racemic) [ASAP-0008576]: in the data set “LogD”, the logd was determined as 4.1. In data set [1] (mean), this compound showed a papp_a_to_b_mean of 3.07 ×10⁻⁶ cm/s and a perc_recovery_a_to_b_mean of 80.1%. Also, in data set [2] (setting [5]), the clint amounted to 177.0 µL/min/mg, the perc_remaining worked out at 6.0% and the t_half stood at 9.4 min. The perc_remaining_no_cofactor in data set [2] (setting [6]) came to 97.0%. For the same compound, in data set [3], the clint is 100.0 µL/min/mg, the perc_remaining amounted to 18.0%, the t_half came to 16.6 min and the perc_remaining_no_cofactor came to 93.0%. Besides, in data set [4], the solubility_mean turned out to be 69 µM (≈ 30.5 µg/mL).

As to `CC(C)(C)[C@H](Nc1ncnc2[nH]c(-c3cnn(CC(N)=O)c3)cc12)c1ccc2c(c1)OCCO2` (racemic) [ASAP-0008581], the logd in the data set “LogD” was determined as 3.2. In data set [1] (mean), this compound showed a papp_a_to_b_mean of 1.66 ×10⁻⁶ cm/s and a perc_recovery_a_to_b_mean of 94.7%. Also, in data set [2] (setting [5]), the clint was 47.0 µL/min/mg, the perc_remaining is 46.0% and the t_half came to 35.2 min. In addition, the perc_remaining_no_cofactor in data set [2] (setting [6]) amounted to 107.0%. Besides, in data set [3], the clint is 133.0 µL/min/mg, the perc_remaining worked out at 11.0%, the t_half worked out at 12.6 min and the perc_remaining_no_cofactor was 87.0%. In data set [4], this compound registered a solubility_mean of 195 µM (≈ 90 µg/mL).

Turning to `CC(C)[C@H](Nc1ncnc2[nH]c(-c3cnn(CC(N)=O)c3)cc12)c1ccc2c(c1)NC(=O)CO2` (racemic) [ASAP-0008621], the logd in “LogD” worked out at 2.5. In data set [1] (mean), this compound came in with a papp_a_to_b_mean of 1.36 ×10⁻⁶ cm/s and a perc_recovery_a_to_b_mean of 98.0%. In addition, in data set [2] (setting [5]), the clint was 11.0 µL/min/mg, the perc_remaining worked out at 84.0% and the t_half came out at 155.8 min. Further, the perc_remaining_no_cofactor in data set [2] (setting [6]) came to 102.0%. Further, in data set [3], the clint amounted to 17.0 µL/min/mg, the perc_remaining was found to be 73.0%, the t_half came to 99.2 min and the perc_remaining_no_cofactor came to 91.0%. This compound also had a solubility_mean in data set [4] of 25 µM (≈ 11.5 µg/mL).

For the compound `Cn1ncc(-c2cc3c(N[C@H](c4ccc5c(n4)OCCO5)C(C)(C)C)ncnc3[nH]2)c1C#N` (racemic) [ASAP-0008645], in data set [1] (mean), the papp_a_to_b_mean was 9.87 ×10⁻⁶ cm/s and 13.5 ×10⁻⁶ cm/s; the perc_recovery_a_to_b_mean is 73.4% and 58.4%. Also, in data set [2] (setting [5]), the clint was 188.0 µL/min/mg and 209.0 µL/min/mg; the perc_remaining is 5.0% and 4.0%; the t_half is 8.9 min and 8.0 min. Besides, the perc_remaining_no_cofactor in data set [2] (setting [6]) is 106.0%. For the same compound, in data set [2] (setting [7]), the perc_remaining_no_cofactor came to 101.0%. Further, in data set [3], the clint is 70.0 µL/min/mg and 81.0 µL/min/mg; the perc_remaining was 30.0% and 27.0%; the t_half is 23.9 min and 20.6 min; the perc_remaining_no_cofactor was 91.0% and 108.0%. The solubility_mean in data set [4] was 25 µM and 24 µM.
